Source: the kinase profiling compilation of Christmann-Franck et al. (2016)

Legend:
Test in all cases: KINOMEscan competition binding
Conditions in all cases: compound 0.1 µM
AXL (human) = AXL (human) (UniProt P30530)
BTK (human) = BTK (human) (UniProt Q06187)
CAMK1G (human) = CAMK1G (human) (UniProt Q96NX5)
CAMK2A (human) = CAMK2A (human) (UniProt Q9UQM7)
CAMK4 (human) = CAMK4 (human) (UniProt Q16566)
CDC42BPG (human) = CDC42BPG (human) (UniProt Q6DT37)
CDK17 (human) = CDK17 (human) (UniProt Q00537)
Sequence of CDK17 (human) (Q00537 whole entry, looked up): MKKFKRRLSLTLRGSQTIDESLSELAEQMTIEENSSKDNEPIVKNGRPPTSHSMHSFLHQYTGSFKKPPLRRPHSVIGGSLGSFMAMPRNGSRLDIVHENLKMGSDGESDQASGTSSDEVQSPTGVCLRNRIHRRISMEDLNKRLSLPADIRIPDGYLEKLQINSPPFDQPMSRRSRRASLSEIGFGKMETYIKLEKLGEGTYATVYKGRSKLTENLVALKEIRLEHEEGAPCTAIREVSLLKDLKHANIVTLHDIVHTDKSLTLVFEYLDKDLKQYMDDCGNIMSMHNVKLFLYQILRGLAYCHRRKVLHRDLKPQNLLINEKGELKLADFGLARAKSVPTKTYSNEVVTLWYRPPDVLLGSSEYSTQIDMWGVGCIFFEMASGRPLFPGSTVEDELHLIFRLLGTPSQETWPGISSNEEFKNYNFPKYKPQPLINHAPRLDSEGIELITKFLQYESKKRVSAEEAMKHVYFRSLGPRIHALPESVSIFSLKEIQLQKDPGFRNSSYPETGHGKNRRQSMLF

CDK19 (human) = CDK19 (human) (UniProt Q9BWU1)
CDK2 (human) = CDK2 (human) (UniProt P24941)
CRK2 (P.falciparum) = CRK2 (P.falciparum) (UniProt P61075)
[1] = test system: EGFR (human), P00533 [L858R]
EPHA5 (human) = EPHA5 (human) (UniProt P54756)
IRAK3 (human) = IRAK3 (human) (UniProt Q9Y616)
[2] = test system: LRRK2 (human), Q5S007 [G2019S]
Sequence of LRRK2 (human), Q5S007 [G2019S] (Q5S007 whole entry G2019S, looked up): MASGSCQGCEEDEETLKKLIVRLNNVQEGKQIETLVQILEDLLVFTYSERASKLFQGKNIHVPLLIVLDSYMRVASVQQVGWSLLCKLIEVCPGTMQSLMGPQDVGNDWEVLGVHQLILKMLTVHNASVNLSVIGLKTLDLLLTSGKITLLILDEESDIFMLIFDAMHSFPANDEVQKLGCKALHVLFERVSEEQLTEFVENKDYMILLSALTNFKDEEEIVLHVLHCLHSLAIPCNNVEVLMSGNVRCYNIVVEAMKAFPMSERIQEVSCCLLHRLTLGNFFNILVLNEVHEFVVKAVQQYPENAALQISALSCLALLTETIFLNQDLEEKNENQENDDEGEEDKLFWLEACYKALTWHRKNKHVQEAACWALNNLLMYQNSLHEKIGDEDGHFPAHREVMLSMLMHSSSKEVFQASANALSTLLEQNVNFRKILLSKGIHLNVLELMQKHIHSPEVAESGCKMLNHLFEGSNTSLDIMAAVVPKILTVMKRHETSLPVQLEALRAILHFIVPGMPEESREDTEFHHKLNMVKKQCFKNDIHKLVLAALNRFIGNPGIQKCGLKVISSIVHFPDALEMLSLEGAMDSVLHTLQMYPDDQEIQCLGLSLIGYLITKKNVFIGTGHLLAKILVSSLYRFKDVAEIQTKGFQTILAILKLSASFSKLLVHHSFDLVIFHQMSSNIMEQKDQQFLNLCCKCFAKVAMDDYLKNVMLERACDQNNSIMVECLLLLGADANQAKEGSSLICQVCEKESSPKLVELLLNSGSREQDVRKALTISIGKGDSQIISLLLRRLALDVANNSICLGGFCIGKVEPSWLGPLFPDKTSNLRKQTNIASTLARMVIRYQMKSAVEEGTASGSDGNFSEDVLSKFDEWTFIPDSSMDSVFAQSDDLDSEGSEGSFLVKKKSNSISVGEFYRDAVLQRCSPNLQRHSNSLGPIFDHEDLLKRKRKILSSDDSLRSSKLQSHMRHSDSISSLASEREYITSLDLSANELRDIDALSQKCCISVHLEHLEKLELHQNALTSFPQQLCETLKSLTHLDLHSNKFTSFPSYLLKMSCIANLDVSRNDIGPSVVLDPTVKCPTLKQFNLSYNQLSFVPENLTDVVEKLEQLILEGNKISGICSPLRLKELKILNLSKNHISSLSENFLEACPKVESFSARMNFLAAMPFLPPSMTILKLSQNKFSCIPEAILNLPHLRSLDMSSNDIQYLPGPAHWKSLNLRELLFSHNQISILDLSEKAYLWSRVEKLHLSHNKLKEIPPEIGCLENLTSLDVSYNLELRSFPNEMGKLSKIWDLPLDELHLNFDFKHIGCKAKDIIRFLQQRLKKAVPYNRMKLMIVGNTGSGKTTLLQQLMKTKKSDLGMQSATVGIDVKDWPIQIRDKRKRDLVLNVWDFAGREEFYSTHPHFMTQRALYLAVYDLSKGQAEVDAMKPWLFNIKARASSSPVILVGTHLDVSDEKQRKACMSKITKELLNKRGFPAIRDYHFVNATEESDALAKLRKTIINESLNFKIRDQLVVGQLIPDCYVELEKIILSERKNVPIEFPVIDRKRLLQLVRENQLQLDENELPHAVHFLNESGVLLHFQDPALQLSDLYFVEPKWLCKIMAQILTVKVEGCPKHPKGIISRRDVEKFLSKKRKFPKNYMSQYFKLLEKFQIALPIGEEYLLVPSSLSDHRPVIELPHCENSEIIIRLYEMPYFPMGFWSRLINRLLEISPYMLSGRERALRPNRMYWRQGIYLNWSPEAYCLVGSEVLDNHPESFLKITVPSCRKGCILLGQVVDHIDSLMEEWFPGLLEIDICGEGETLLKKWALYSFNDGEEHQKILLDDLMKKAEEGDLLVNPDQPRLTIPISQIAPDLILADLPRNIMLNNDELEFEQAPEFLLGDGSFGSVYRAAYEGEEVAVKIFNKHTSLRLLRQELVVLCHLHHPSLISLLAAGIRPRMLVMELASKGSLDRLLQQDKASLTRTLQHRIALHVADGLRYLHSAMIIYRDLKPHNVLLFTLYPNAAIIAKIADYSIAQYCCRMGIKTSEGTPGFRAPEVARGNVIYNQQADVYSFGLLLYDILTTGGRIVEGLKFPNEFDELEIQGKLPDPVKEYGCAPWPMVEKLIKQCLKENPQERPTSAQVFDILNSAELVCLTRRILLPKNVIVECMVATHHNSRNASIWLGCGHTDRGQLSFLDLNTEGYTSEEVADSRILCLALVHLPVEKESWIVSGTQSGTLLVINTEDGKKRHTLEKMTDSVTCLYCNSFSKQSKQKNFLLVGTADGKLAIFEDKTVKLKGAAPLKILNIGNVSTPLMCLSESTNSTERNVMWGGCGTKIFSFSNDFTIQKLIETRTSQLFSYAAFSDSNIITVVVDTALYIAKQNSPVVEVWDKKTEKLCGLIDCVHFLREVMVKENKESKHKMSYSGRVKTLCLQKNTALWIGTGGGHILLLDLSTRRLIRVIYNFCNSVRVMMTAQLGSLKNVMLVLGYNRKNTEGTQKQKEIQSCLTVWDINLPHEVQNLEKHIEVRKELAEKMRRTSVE

MAP2K1 (human) = MAP2K1 (human) (UniProt Q02750)
MAP2K3 (human) = MAP2K3 (human) (UniProt P46734)
MAP3K11 (human) = MAP3K11 (human) (UniProt Q16584)
MAP3K12 (human) = MAP3K12 (human) (UniProt Q12852)
MAPK13 (human) = MAPK13 (human) (UniProt O15264)
MARK4 (human) = MARK4 (human) (UniProt Q96L34)
[3] = test system: MET (human), P08581 [M1250T]
MKNK1 (human) = MKNK1 (human) (UniProt Q9BUB5)
NEK9 (human) = NEK9 (human) (UniProt Q8TD19)
PDGFRA (human) = PDGFRA (human) (UniProt P16234)
PHKG1 (human) = PHKG1 (human) (UniProt Q16816)
PIK3CA (human) = PIK3CA (human) (UniProt P42336)
PIP5K1C (human) = PIP5K1C (human) (UniProt O60331)
PKN3 (M.tuberculosis) = PKN3 (M.tuberculosis) (UniProt Q6P5Z2)
PLK4 (human) = PLK4 (human) (UniProt O00444)
PRKCI (human) = PRKCI (human) (UniProt P41743)
PRKD2 (human) = PRKD2 (human) (UniProt Q9BZL6)
PRKX (human) = PRKX (human) (UniProt P51817)
RAF1 (human) = RAF1 (human) (UniProt P04049)
RIPK2 (human) = RIPK2 (human) (UniProt O43353)
SIK3 (human) = SIK3 (human) (UniProt Q9Y2K2)
SLK (human) = SLK (human) (UniProt Q9H2G2)
SRMS (human) = SRMS (human) (UniProt Q9H3Y6)
STK17B (human) = STK17B (human) (UniProt O94768)
TNIK (human) = TNIK (human) (UniProt Q9UKE5)
WEE2 (human) = WEE2 (human) (UniProt P0C1S8)
Sequence of WEE2 (human) (P0C1S8 whole entry, looked up): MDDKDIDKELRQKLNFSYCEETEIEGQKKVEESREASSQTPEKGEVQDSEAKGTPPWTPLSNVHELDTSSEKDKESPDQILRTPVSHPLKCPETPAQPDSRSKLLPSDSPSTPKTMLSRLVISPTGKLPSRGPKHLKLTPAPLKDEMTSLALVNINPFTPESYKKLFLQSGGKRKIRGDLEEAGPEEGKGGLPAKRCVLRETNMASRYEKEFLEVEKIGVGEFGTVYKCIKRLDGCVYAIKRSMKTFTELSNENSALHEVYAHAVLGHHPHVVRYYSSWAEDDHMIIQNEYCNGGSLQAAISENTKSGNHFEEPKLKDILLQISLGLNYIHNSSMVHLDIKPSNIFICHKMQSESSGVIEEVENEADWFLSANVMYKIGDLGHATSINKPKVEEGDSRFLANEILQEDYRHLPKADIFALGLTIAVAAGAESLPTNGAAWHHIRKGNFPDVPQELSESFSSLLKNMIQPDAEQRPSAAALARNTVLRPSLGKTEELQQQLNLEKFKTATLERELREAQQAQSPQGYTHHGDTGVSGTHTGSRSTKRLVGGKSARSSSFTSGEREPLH

Sequence of CAMK1G (human) (Q96NX5 whole entry, looked up): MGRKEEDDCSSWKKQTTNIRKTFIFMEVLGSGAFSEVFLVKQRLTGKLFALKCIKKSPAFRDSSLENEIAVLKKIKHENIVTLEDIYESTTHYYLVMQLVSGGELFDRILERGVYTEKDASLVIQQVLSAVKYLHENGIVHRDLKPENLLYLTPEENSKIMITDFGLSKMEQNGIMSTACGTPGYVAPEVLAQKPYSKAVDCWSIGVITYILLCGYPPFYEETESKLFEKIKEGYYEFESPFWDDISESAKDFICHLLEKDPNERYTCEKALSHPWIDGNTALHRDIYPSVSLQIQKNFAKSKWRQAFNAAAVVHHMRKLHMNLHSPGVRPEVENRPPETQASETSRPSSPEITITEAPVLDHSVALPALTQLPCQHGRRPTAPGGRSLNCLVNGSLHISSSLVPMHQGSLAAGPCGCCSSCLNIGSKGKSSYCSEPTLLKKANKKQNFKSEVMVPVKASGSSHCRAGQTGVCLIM
Sequence of AXL (human) (P30530 whole entry, looked up): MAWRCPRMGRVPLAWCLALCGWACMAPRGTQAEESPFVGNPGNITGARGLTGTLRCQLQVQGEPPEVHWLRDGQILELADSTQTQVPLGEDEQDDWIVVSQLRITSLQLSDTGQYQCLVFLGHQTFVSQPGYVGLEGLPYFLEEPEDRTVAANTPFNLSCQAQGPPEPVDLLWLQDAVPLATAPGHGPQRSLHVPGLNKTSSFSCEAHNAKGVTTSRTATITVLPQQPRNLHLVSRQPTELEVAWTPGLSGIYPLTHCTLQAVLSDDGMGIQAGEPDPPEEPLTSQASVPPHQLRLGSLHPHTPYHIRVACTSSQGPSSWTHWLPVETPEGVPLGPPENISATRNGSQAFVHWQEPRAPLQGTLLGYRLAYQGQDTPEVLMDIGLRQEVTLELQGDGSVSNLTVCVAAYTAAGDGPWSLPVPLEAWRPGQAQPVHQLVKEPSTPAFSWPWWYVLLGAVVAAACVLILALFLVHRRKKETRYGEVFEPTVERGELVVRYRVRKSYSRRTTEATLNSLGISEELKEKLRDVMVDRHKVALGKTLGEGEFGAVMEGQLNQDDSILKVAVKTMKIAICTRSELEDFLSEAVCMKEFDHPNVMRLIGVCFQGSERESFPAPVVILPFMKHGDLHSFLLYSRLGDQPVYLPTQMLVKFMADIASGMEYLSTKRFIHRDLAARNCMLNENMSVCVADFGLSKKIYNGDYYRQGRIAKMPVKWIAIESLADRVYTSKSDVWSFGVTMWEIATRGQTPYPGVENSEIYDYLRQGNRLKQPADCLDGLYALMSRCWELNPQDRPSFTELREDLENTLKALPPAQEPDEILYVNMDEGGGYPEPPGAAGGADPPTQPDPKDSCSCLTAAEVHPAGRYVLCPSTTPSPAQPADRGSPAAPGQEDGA

In the case of CCc1ccc(C(=O)Nc2cc(CN3CCN(C)CC3)cc(C(F)(F)F)c2)cc1C#Cc1cnc2ccnn2c1, the kinase still bound, per cent of control (AXL (human)) is reported as 100%, the kinase still bound, per cent of control (BTK (human)) is reported as 100% and the kinase still bound, per cent of control (CAMK1G (human)) is reported as 71%. The kinase still bound, per cent of control (CAMK2A (human)) was 92%, the kinase still bound, per cent of control (CAMK4 (human)) was 100% and the kinase still bound, per cent of control (CDC42BPG (human)) was 100%. The kinase still bound, per cent of control (CDK17 (human)) was 100%, the kinase still bound, per cent of control (CDK19 (human)) was 90% and the kinase still bound, per cent of control (CDK2 (human)) was 84%. The kinase still bound, per cent of control (CRK2 (P.falciparum)) was 100%, the kinase still bound, per cent of control [1] was 100% and the kinase still bound, per cent of control (EPHA5 (human)) was 100%. It also gave a kinase still bound, per cent of control (IRAK3 (human)) of 80%, a kinase still bound, per cent of control [2] of 94% and a kinase still bound, per cent of control (MAP2K1 (human)) of 100%. The kinase still bound, per cent of control (MAP2K3 (human)) was 100%, the kinase still bound, per cent of control (MAP3K11 (human)) was 83% and the kinase still bound, per cent of control (MAP3K12 (human)) was 81%. It also gave a kinase still bound, per cent of control (MAPK13 (human)) of 69%, a kinase still bound, per cent of control (MARK4 (human)) of 71% and a kinase still bound, per cent of control [3] of 85%. It also gave a kinase still bound, per cent of control (MKNK1 (human)) of 91%, a kinase still bound, per cent of control (NEK9 (human)) of 100% and a kinase still bound, per cent of control (PDGFRA (human)) of 79%. The kinase still bound, per cent of control (PHKG1 (human)) was 85%, the kinase still bound, per cent of control (PIK3CA (human)) was 100% and the kinase still bound, per cent of control (PIP5K1C (human)) was 96%. For the same compound, the kinase still bound, per cent of control (PKN3 (M.tuberculosis)) was 78%, the kinase still bound, per cent of control (PLK4 (human)) was 100% and the kinase still bound, per cent of control (PRKCI (human)) was 100%. The kinase still bound, per cent of control (PRKD2 (human)) was 100%, the kinase still bound, per cent of control (PRKX (human)) was 100% and the kinase still bound, per cent of control (RAF1 (human)) was 57%. For the same compound, the kinase still bound, per cent of control (RIPK2 (human)) was 56%, the kinase still bound, per cent of control (SIK3 (human)) was 100% and the kinase still bound, per cent of control (SLK (human)) was 66%. It also gave a kinase still bound, per cent of control (SRMS (human)) of 99%, a kinase still bound, per cent of control (STK17B (human)) of 75% and a kinase still bound, per cent of control (TNIK (human)) of 84%. For the same compound, the kinase still bound, per cent of control (WEE2 (human)) was 84%.
